# From patent US20220144850A1, “INDOLO HEPTAMYL OXIME ANALOGUE AS PARP INHIBITOR” (Chia Tai Tianqing Pharmaceutical Group Co., Ltd., priority 2019, published 2022)
# Tests used:
# [1] = tested on: BRCA1-mutated MDA-MB-436 cells; test: Anti-proliferation experiment on MDA-MB-436 CTG cells; type: cell-based, human; details: 7 days incubation, CellTiter-Glo
# Protocol: Experimental Example 2: Anti-Proliferation Experiment on MDA-MB-436 CTG Cells
# Experimental materials: test compounds; RPMI-1640 medium; fetal bovine serum; penicillin/streptomycin antibiotic; MDA-MB-436 cell line; Envision multi-marker analyzer (PerkinElmer).
# MDA-MB-436 cells were seeded in a white 96-well plate by adding 80 μL of cell suspension (containing 3000 MDA-MB-436 cells) to each well. The cell plate was incubated in a CO2 incubator overnight.
# (§1) Test compounds were serially 5-fold diluted to the 8th concentration with a multichannel pipette, i.e. from 2 mM to 26 nM, and a duplicate well experiment was performed. 78 μL of medium was added to a intermediate plate, 2 μL of each of serially diluted compounds was transferred to corresponding wells of the intermediate plate, and after mixing, the mixture was transferred to the cell plate at 20 μL per well. The cell plate was incubated in a CO2 incubator for 7 days. Another cell plate was provided for reading signal values on the day of compound addition and these signal values were used as Max values in data analysis. Promega CellTiter-Glo was added to this cell plate at 25 μL per well and the luminescence signals were stabilized by incubation for 10 min at room temperature. Readings were taken using a PerkinElmer Envision multi-marker analyzer.
# (§2) Promega CellTiter-Glo was added to the cell plate at 25 μL per well and the luminescence signals were stabilized by incubation for 10 min at room temperature. Readings were taken using a PerkinElmer Envision multi-marker analyzer.
# 2. Data analysis: the original data was converted to inhibition using the equation (sample−Min)/(Max−Min)×100%, and the IC50 value was then curve fitted using four parameters (obtained from the “log(inhibitor) vs. response-variable slope” model in GraphPad Prism). Table 2 provides the inhibitory activity of the compounds disclosed herein against MDA-MB-436 cell proliferation.
# PARP1 = biological target: T1, PARP1 (Homo sapiens, UniProt P09874); test: PARP-1 enzymatic experiment (HT Universal Chemiluminescent PARP Assay kit); type: biochemical; details: chemiluminescence
# T1 construct: purchased TREVIGEN
# T1 sequence (P09874 whole entry): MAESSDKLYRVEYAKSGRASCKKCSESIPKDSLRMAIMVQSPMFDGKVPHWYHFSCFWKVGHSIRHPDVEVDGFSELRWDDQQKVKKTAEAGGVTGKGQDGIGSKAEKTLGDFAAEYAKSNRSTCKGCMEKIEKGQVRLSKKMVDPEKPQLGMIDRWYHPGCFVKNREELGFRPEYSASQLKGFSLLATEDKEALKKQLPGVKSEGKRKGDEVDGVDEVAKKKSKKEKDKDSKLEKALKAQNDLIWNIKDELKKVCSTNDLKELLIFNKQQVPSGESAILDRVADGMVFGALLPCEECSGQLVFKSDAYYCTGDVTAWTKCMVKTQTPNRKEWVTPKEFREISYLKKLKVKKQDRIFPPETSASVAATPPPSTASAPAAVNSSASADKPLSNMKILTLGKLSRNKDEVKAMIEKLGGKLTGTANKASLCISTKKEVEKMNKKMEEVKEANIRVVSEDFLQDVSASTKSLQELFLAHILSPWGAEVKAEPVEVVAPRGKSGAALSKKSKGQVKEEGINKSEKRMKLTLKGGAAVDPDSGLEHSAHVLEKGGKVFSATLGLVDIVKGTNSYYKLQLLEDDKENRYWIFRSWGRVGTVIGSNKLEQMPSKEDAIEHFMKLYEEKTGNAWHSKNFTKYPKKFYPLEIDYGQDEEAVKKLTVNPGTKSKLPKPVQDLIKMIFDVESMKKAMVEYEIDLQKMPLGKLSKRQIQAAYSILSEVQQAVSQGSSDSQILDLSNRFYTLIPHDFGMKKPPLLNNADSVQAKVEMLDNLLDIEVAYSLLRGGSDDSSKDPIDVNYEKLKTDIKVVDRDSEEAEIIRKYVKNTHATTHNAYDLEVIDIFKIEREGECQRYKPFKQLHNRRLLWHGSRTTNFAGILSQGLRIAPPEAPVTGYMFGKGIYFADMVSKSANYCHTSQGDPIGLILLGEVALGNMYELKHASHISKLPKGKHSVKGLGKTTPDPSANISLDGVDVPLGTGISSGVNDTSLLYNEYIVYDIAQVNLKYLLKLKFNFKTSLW
# Protocol: Experimental Example 1: PARP-1 Enzymatic Experiment
# Experimental materials: test compounds; HT Universal Chemiluminescent PARP Assay kit (purchased from TREVIGEN); PBS (purchased from Wisent); Triton X-100 (purchased from Macklin); Envision multi-marker analyzer (PerkinElmer).
# (I) Preparation of Reagents:
# • 1. Washing solution: Triton X-100 was added to 1-fold PBS, and the final concentration of Triton X-100 was 0.1%. • 2. 1-fold PARP buffer: the 20-fold PARP buffer in the kit was subjected to 20-fold dilution with water to prepare a 1-fold PARP buffer. This buffer was used to prepare the compound, enzyme solution and substrate solution. • 3. 1-fold Strep-Diluent solution: the 10-fold Strep-diluent in the kit was subjected to 10-fold dilution with water to prepare a 1-fold Strep-diluent solution.
# (II) Preparation of Test Compounds:
# Test compounds were serially 5-fold diluted to the 8th concentration with a multichannel pipette, i.e. from 200 μM to 2.56 nM, with the DMSO concentration being 100%. 2 μL of each of the inhibitors at various concentration gradients was added to a compound intermediate plate, and 38 μL of the 1-fold PARP buffer was then added; the two were mixed well for use, and the DMSO concentration was 5%.
# (III) Experimental Method:
# • a) The 1-fold PARP buffer was added to a test plate at 50 μL per well and incubated at 25° C. for 30 min. • b) After the incubation was completed, the liquid in the test plate was discarded, and each of the compounds at various concentration gradients was pipetted from the compound intermediate plate and added into the test plate at 10 μL per well. A duplicate-well experiment was performed. • c) The test plate was added with the enzyme solution (0.5 IU) at 15 μL per well. The compound and enzyme were incubated together at 25° C. for 10 min. • d) After the incubation was completed, 25 μL of the 1-fold PARP Cocktail (comprising 2.5 μL of 10-fold PARP Cocktail, 2.5 μL of 10-fold Activated DNA and 20 μL of 1-fold PARP buffer) was added to each well of the test plate. The test plate was incubated at 25° C. for 1 h. The final concentration of the compound was 2 μM to 0.0256 nM, and the DMSO concentration was […]. • e) After the incubation was completed, the test plate was washed twice with 200 μL of washing solution per well and then washed twice with 200 μL of PBS per well. • f) Strep-HRP in the kit was subjected to 500-fold dilution with the 1-fold Strep-Diluent solution, added to the test plate at 50 μL per well, and then incubated at 25° C. for 1 h. • g) After the incubation was completed, the test plate was washed twice with 200 μL of washing solution per well and then washed twice with 200 μL of PBS per well.
# PeroxyGlow A and B in the kit were mixed at ratio of 1:1, and the mixed solution was added to the test plate at 100 μL per well. Chemiluminescence was immediately read using a PerkinElmer Envision multi-marker analyzer with an integration time of 0.5 s.
# Data analysis: the original data was converted to inhibition using the equation (sample−Min)/(Max−Min)×[…], and the IC50 value was then curve filled using four parameters (obtained from the “log(inhibitor) vs. response-variable slope” model in GraphPad Prism).
# [2] = tested on: BRCA-wild type MDA-MB-231 cells; test: Anti-proliferation experiment on MDA-MB-231 CTG cells; type: cell-based; details: Homo sapiens, MDA-MB-231, 72 h; 3 days incubation, CellTiter-Glo
# Protocol: Experimental Example 3: Anti-Proliferation Experiment on MDA-MB-231 CTG Cells
# Experimental materials: test compounds; R DMEM medium; fetal bovine serum; penicillin/streptomycin antibiotic; MDA-MB-231 cell line; Envision multi-label analyzer.
# MDA-MB-231 cells were seeded in a white 96-well plate by adding 80 μL of cell suspension (containing 5000 MDA-MB-231 cells) to each well. The cell plate was incubated in a CO2 incubator overnight.
# as §1, with “Eight concentration points were set for each compound, test compounds” for “Test compounds”, “serially 3-fold” for “serially 5-fold”, “to 920” for “to 26”, “for 3” for “for 7”
# as §2
# Data analysis: the original data was converted to inhibition using the equation (sample−Min)/(Max−Min)×100%, and the IC50 value was then curve fitted using four parameters (obtained from the “log(inhibitor) vs. response-variable slope” model in GraphPad Prism). Table 1 provides the inhibitory activity of the compounds disclosed herein against MDA-MB-231 cell proliferation.
# [3] = Single-dose pharmacokinetic study in mice; type: in vivo; details: male C57BL/6 mice, IV: 1 mg/kg PO: 5 mg/kg
# Description: Experimental Example 8: Single-Dose Pharmacokinetic Study in Mice
# Experimental objective: to evaluate the pharmacokinetic behavior by using male C57BL/6 mice as test animals and determining the drug concentrations of the compounds in the plasma, liver and cerebrospinal fluid after single-dose administration.
# Experimental method: healthy adult male C57BL/6 mice were selected for intragastric administration. A candidate compound was mixed with an appropriate amount of 10% DMSO/90% (20% hydroxypropyl-β-cyclodextrin), vortexed and sonicated to prepare a 0.5 mg/mL clear solution for later use. After the mice were administered intravenously at 1 mg/kg and orally at 5 mg/kg, whole blood was collected at certain time points, and plasma was separated, and liver and cerebrospinal fluid were collected. After pretreatment of the samples, the drug concentration was measured by LC-MS/MS, and pharmacokinetic parameters were calculated using Phoenix WinNonlin software.
# [4] = Homo sapiens, MDA-MB-436, 168 h
Compound,"IC50 [1, 4]",IC50 [1],IC50 (PARP1),also measured
O=C1NOCc2c(-c3ccc(C4CCCNC4)cc3F)[nH]c3cc(F)cc1c23 (racemic) [Example 10],27 nM,–,–,–
[2H]C1(c2ccc(-c3[nH]c4cccc5c4c3CONC5=O)cc2)CCCN1 (centres unmarked) [Example 8_A],20.8 nM,–,2.7 nM,–
[2H]C1(c2ccc(-c3[nH]c4cccc5c4c3CONC5=O)cc2F)CCCN1 (centres unmarked) [Example 15_B],89.6 nM,–,7.1 nM,–
O=C1NOCc2c(-c3ccc(C4CCCN4)nc3)[nH]c3cccc1c23 (centres unmarked) [Example 16_B],44.6 nM,–,2.8 nM,–
O=C1NOCc2c(-c3ccc(C4=CNCC4)c(F)c3)[nH]c3cccc1c23 [Example 18],134 nM,–,–,–
O=C1NOCc2c(-c3ccc(C4(F)CCCNC4)c(F)c3)[nH]c3cccc1c23 (centres unmarked) [Example 19_B],24 nM,–,3.5 nM,–
O=C1NOCc2c(-c3ccc(C4CCCN4CCO)c(F)c3)[nH]c3cccc1c23 (centres unmarked) [Example 20_B],61.6 nM,–,3.8 nM,–
CC1(c2ccc(-c3[nH]c4cc(F)cc5c4c3CONC5=O)cc2)CCCN1 (centres unmarked) [Example 25_B],–,20.7 nM,2.8 nM,–
"CNCc1ccc(-c2[nH]c3cc(F)cc4c3c2CCNC4=O)cc1 [Rucaparib, reference compound]",–,–,–,"Maximum concentration [3]: 24.8 nM; bioavailability ([3]; mouse, plasma): 14.6%; clearance ([3]; mouse, plasma): 99.9 mL/min/kg; Vd ([3]; mouse, plasma, read-out: Apparent volume of distribution): 13.1 L/kg"

# Continued, in another order:
"IC50 [1, 4]",IC50 [1],IC50 (PARP1),Compound,also measured
–,125 nM,4.9 nM,"O=C1NOCc2c(-c3ccc(C4CCCN4)cc3F)[nH]c3cc(F)cc1c23 (single isomer, unassigned) [Example 22_A]",–
–,61.6 nM,4.2 nM,"O=C1NOCc2c(-c3ccc(C4CCCN4)cc3F)[nH]c3cc(F)cc1c23 (single isomer, unassigned) [Example 22_B]",IC50 [2]: > 10000 nM
–,4.4 nM,2.5 nM,"O=C1NOCc2c(-c3ccc(C4CCCN4)cc3)[nH]c3cc(F)cc1c23 (single isomer, unassigned) [Example 24_B]",–
–,29.3 nM,3.6 nM,"CC1(c2ccc(-c3[nH]c4cc(F)cc5c4c3CONC5=O)cc2F)CCCN1 (single isomer, unassigned) [Example 26_B]",–
73 nM,–,2.9 nM,"O=C1NOCc2c(-c3ccc(C4CCCN4)c(F)c3)[nH]c3cc(F)cc1c23 (single isomer, unassigned) [Example 28_A]",–
–,50 nM,3.4 nM,"O=C1NOCc2c(-c3ccc(C4CCCN4)c(F)c3)[nH]c3cc(F)cc1c23 (single isomer, unassigned) [Example 28_B]",–
69.8 nM,–,5.6 nM,[2H]C1([2H])ONC(=O)c2cccc3[nH]c(-c4ccc(C5CCCN5)c(F)c4)c1c23 (centres unmarked) [Example 21_B],–
30.9 nM,–,3.7 nM,[2H]C1([2H])ONC(=O)c2cccc3[nH]c(-c4ccc(C5(C)CCCN5)c(F)c4)c1c23 (centres unmarked) [Example 23_A],–
